Test results published in US12336981B2, “Compounds and compositions for the inhibition of NAMPT” (Valo Health, Inc., priority 2010, dated 2025).
Values joined by “and” are separate entries in the source; they are usually repeats but may differ in a detail not shown here. Equal entries are not always repeated.

The compounds below were run against T1, NAMPT (Homo sapiens, UniProt P43490) (assay: Biochemical inhibition assay: NAMPT enzymatic reaction, NMN quantified by mass spectrometry). Settings: NAMPT enzymatic assay; read-out: Biochem IC50.
T1 construct: His tag; host or cells: E. coli
Experimental: Biochemical Inhibition Assay
NAMPT Protein Purification
Recombinant His-tagged NAMPT was produced in E. coli cells, purified over a Ni column, and further purified over a size-exclusion column by XTAL Biostructures.
The NAMPT Enzymatic Reaction
The NAMPT enzymatic reactions were carried out in Buffer A (50 mM Hepes pH 7.5, 50 mM NaCl, 5 mM MgCl2, and 1 mM THP) in 96-well V-bottom plates. The compound titrations were performed in a separate dilution plate by serially diluting the compounds in DMSO to make a 100× stock. […] The compound and enzyme mix was incubated for 15 minutes at room temperature, then 10 μL of 10× substrate and co-factors in Buffer A were added to the test well to make a final concentration of 1 μM NAM, 100 μM 5-Phospho-D-ribose 1-diphosphate (PRPP), and 2.5 mM Adenosine 5′-triphosphate (ATP). The reaction was allowed to proceed for 30 minutes at room temperature, then was quenched with the addition of 11 μL of a solution of formic acid and L-Cystathionine to make a final concentration of 1% formic acid and 10 μM L-Cystathionine. Background and signal strength was determined by addition (or non-addition) of a serial dilution of NMN to a pre-quenched enzyme and cofactor mix.
A mass spectrometry-based assay was used to measure the NAMPT reaction product (NMN) and the internal control (L-Cystathionine). NMN and L-Cystathionine were detected using the services of Biocius Lifesciences with the RapidFire system. In short, the NMN and L-Cystathionine are bound to a graphitic carbon cartridge in 0.1% formic acid, eluted in 30% acetonitrile buffer, and injected into a Sciex 4000 mass spectrometer. The components of the sample were ionized with electrospray ionization and the positive ions were detected. […] The fragments are quantified and the analyzed by the following method.
First the NMN signal is normalized to the L-Cystathionine signal by dividing the NMN signal by the L-Cystathionine signal for each well. The signal from the background wells are averaged and subtracted from the test plates. […] IC50s are Determined Using Excel and this Formula.

T1 sequence (P43490 whole entry): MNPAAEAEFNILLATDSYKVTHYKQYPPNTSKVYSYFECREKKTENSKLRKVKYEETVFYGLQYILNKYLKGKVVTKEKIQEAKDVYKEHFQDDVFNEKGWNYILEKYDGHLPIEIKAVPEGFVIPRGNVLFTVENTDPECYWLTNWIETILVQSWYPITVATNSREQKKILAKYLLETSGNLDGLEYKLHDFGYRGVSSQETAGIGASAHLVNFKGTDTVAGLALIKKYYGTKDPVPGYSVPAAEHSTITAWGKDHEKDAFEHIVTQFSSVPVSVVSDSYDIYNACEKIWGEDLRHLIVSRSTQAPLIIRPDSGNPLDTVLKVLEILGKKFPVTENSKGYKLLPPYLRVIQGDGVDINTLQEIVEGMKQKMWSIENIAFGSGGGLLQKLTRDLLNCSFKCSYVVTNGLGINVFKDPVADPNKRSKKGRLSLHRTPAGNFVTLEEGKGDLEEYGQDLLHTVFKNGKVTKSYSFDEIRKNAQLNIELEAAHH

Compound	IC50
O=C(NCc1ccc(S(=O)(=O)c2cnn(-c3cccc(Cl)c3)c2)cc1)c1ccc2nccn2c1 [N-({4-[1-(3-chlorophenyl)-1H-pyrazole-4-sulfonyl]phenyl}methyl)imidazo[1,2-a]pyridine-6-carboxamide]	14 nM
O=C(NCc1ccc(S(=O)(=O)c2ccc(F)c(C(F)(F)F)c2)cc1)c1cnc2nccn2c1	8 nM
Cn1cc2ccc(S(=O)(=O)c3ccc(CNC(=O)c4cc5cnccc5[nH]4)cc3)cc2n1 [N-{[4-(2-methyl-2H-indazole-6-sulfonyl)phenyl]methyl}-1H-pyrrolo[3,2-c]pyridine-2-carboxamide]	2.5 nM
O=C(NCc1ccc(S(=O)(=O)c2cccc3c2OCC3)cc1)c1cnc2[nH]ncc2c1 [N-{[4-(2,3-dihydro-1-benzofuran-7-sulfonyl)phenyl]methyl}-1H-pyrazolo[3,4-b]pyridine-5-carboxamide]	24.8 nM
CCCS(=O)(=O)Nc1cccc(S(=O)(=O)c2ccc(CNC(=O)c3cc4ccncc4s3)cc2)c1	1.5 nM
O=C(NCc1ccc(S(=O)(=O)c2cncc(Cl)c2)cc1)c1ccc2nccn2c1 [N-{[4-(5-chloropyridine-3-sulfonyl)phenyl]methyl}imidazo[1,2-a]pyridine-6-carboxamide]	24.4 nM
O=C(NC1CCCC1)c1cccc(S(=O)(=O)c2ccc(CNC(=O)c3cc4ccncc4o3)cc2)c1	6.6 nM
Cc1nc(-c2cccc(S(=O)(=O)c3ccc(CNC(=O)c4cc5ccncc5o4)cc3)c2)no1	7.9 nM
O=C(NCc1ccc(S(=O)(=O)c2cc(C(F)(F)F)ccn2)cc1)c1ccc2nccn2c1 [N-({4-[4-(trifluoromethyl)pyridine-2-sulfonyl]phenyl}methyl)imidazo[1,2-a]pyridine-6-carboxamide]	19.7 nM
COc1cccc(S(=O)(=O)c2ccc(CNC(=O)c3cc4ccncc4o3)cc2)n1 [N-{[4-(6-methoxypyridine-2-sulfonyl)phenyl]methyl}furo[2,3-c]pyridine-2-carboxamide]	2.5 nM
O=C(NCc1ccc(S(=O)(=O)c2cncc3ccccc23)cc1)c1cnc2nccn2c1 [N-{[4-(isoquinoline-4-sulfonyl)phenyl]methyl}imidazo[1,2-a]pyrimidine-6-carboxamide]	1.6 nM
O=C(NCc1ccc(S(=O)(=O)c2cccc3c2sc2ccccc23)cc1)c1cc2cnccc2[nH]1	3.5 nM
O=C(NCc1ccc(S(=O)(=O)c2ccc(F)c(OCC(F)(F)F)c2)cc1)c1cnc2[nH]ncc2c1 [N-[(4-{[4-fluoro-3-(2,2,2-trifluoroethoxy)benzene]sulfonyl}phenyl)methyl]-1H-pyrazolo[3,4-b]pyridine-5-carboxamide]	10 nM
CN(C)S(=O)(=O)c1cccc(S(=O)(=O)c2ccc(CNC(=O)c3cc4ccncc4o3)cc2)c1	2 nM
O=C(NCc1ccc(S(=O)(=O)c2cccc(N3CCOCC3)c2)cc1)c1cc2ccncc2[nH]1	20.7 nM and 8.4 nM
O=C(NCc1ccc(S(=O)(=O)c2ccc(Cn3ccnc3)cc2)cc1)c1cc2ccncc2o1	19 nM
CCS(=O)(=O)c1cccc(S(=O)(=O)c2ccc(CNC(=O)c3cc4ccncc4o3)cc2)c1	2.7 nM
O=C(NCc1ccc(S(=O)(=O)c2cnc3ccccc3c2)cc1)c1cc2ccncc2o1 [N-{[4-(quinoline-3-sulfonyl)phenyl]methyl}furo[2,3-c]pyridine-2-carboxamide]	4.2 nM
CC(C)Oc1ccc(S(=O)(=O)c2ccc(CNC(=O)c3cnc4nccn4c3)cc2)cc1	4.3 nM

Same assay, conditions: NAMPT enzymatic reaction; read-out: Biochem IC50

Compound	IC50
CCCOc1ccc(Cl)cc1S(=O)(=O)c1ccc(CNC(=O)c2ccc3nccn3c2)cc1	8 nM
Cc1ccc(S(=O)(=O)c2ccc(CNC(=O)c3cnc4[nH]ncc4c3)cc2)cc1Cl	6.1 nM
COc1ccc(Cl)cc1S(=O)(=O)c1ccc(CNC(=O)c2ccc3nccn3c2)cc1	19.1 nM
CC(C)(C)c1cccc(S(=O)(=O)c2ccc(CNC(=O)c3ccc4nccn4c3)cc2)c1	9.7 nM
N-({4-[(2,4-dichloro-3-methoxybenzene)sulfonyl]phenyl}methyl)-1H-pyrazolo[3,4-b]pyridine-5-carboxamide	20 nM
O=C(NCc1ccc(S(=O)(=O)c2ccccc2OC(F)(F)F)cc1)c1ccc2nccn2c1 [N-(4-(2-(trifluoromethoxy)phenylsulfonyl)benzyl)imidazo[1,2-a]pyridine-6-carboxamide]	8 nM
Cc1cc(F)cc(S(=O)(=O)c2ccc(CNC(=O)c3cc4ccncc4o3)cc2)c1	3.4 nM
CCCOc1ccc(S(=O)(=O)c2ccc(CNC(=O)c3cc4cnccc4[nH]3)cc2)cc1Cl	74 nM

What follows are compounds tested on A2780 cells (assay: In-vitro cell proliferation assay (SRB), A2780 cells). Settings: A2780 cells, 72 hours, SRB; read-out: A2780 IC50.
Assay type: cell-based
Experimental: In-Vitro Cell Proliferation Assay
After overnight incubation at 37° C. and 5% CO2, the compound titrations were performed in a separate dilution plate by serially diluting the compounds in DMSO to make a 1000× stock. The compounds were then further diluted to 10× final concentration in culture media, whereupon 20 μL of each dilution was added to the plated cells with controls (e.g. DMSO and blank) to make a final volume of 200 μL. The final DMSO concentration in each well was 0.1%. The plates were then incubated for 72 hours at 37° C. in a 5% CO2 incubator. The number of viable cells was then assessed using sulforhodamine B (SRB) assay. Cells were fixed at 4° C. for 1 hour with the addition of 50 μL 30% trichloroacetic acid (TCA) to make a final concentration of 6% TCA. The plates were washed four times with H2O and allowed to dry for at least 1 hour, whereupon 100 μL of a 4% SRB in 1% acetic acid solution was added to each well and incubated at room temperature for at least 30 minutes. The plates were then washed three times with 1% acetic acid, dried, and treated with 100 μL of 10 mM Tris-Base solution. The plates were then read in a microplate reader at an absorbance of 570 nm. Background was generated on a separate plate with media only.
Method for Determining % Inhibition
First, the signals from the background plate are averaged, then the background was subtracted from the test plates.
wherein X denotes the compound concentration 1, Y denotes the compound concentration 2, XX denotes the % inhibition at compound concentration 1 (X), and YY denotes the % inhibition at compound concentration 2 (Y).

Compound	IC50
Cc1c(F)cccc1S(=O)(=O)c1ccc(CNC(=O)c2cc3ccncc3s2)cc1	21.4 nM

Same assay, conditions: Homo sapiens, A2780, 72 h, A2780 cells, 72 hours, SRB assay; read-out: A2780 IC50

Compound	IC50
O=C(NCc1ccc(S(=O)(=O)N2CCCCC2)cc1)c1cc2cnccc2[nH]1 [N-{[4-(piperidine-1-sulfonyl)phenyl]methyl}-1H-pyrrolo[3,2-c]pyridine-2-carboxamide]	200 nM

Same assay, conditions: Homo sapiens, A2780, 72 h, A2780 cells, 72 hours, SRB; read-out: A2780 IC50

Compound	IC50
O=C(NCc1ccc(S(=O)(=O)c2cnn(-c3cccc(Cl)c3)c2)cc1)c1ccc2nccn2c1 [N-({4-[1-(3-chlorophenyl)-1H-pyrazole-4-sulfonyl]phenyl}methyl)imidazo[1,2-a]pyridine-6-carboxamide]	6.4 nM
O=C(NCc1ccc(S(=O)(=O)c2cc(F)cc(F)c2)cc1)c1ccc2nccn2c1 [N-({4-[(3,5-difluorobenzene)sulfonyl]phenyl}methyl)imidazo[1,2-a]pyridine-6-carboxamide]	1.5 nM
COCc1cccc(S(=O)(=O)c2ccc(CNC(=O)c3cnc4nccn4c3)cc2)c1	13.8 nM
COc1cc(OC)cc(S(=O)(=O)c2ccc(CNC(=O)c3ccc4nccn4c3)cc2)c1	1.5 nM
CCOc1cccc(S(=O)(=O)c2ccc(CNC(=O)c3cc4ccncc4s3)cc2)c1 [N-({4-[(3-ethoxybenzene)sulfonyl]phenyl}methyl)thieno[2,3-c]pyridine-2-carboxamide]	2.9 nM
N#CC1(c2ccc(S(=O)(=O)c3ccc(CNC(=O)c4cnc5nccn5c4)cc3)cc2)CCCC1	4.7 nM
Cn1cc2ccc(S(=O)(=O)c3ccc(CNC(=O)c4cnc5[nH]ncc5c4)cc3)cc2n1 [N-{[4-(2-methyl-2H-indazole-6-sulfonyl)phenyl]methyl}-1H-pyrazolo[3,4-b]pyridine-5-carboxamide]	7 nM
O=C(NCc1ccc(S(=O)(=O)c2ccc(-c3ccccc3)cc2)cc1)c1cnc2nccn2c1	7.6 nM
O=C(NCc1ccc(S(=O)(=O)c2cccc(-c3ncccn3)c2)cc1)c1cnc2nccn2c1	13 nM
Cc1cccc(S(=O)(=O)c2ccc(CNC(=O)c3cnc4nccn4c3)cc2)c1F [N-({4-[(2-fluoro-3-methylbenzene)sulfonyl]phenyl}methyl)imidazo[1,2-a]pyrimidine-6-carboxamide]	21.5 nM
O=C(NCc1ccc(S(=O)(=O)c2ccc(C(=O)N3CCCC3)cc2)cc1)c1cnc2[nH]ncc2c1	9.3 nM
COc1cc(-n2cccn2)ccc1S(=O)(=O)c1ccc(CNC(=O)c2cnc3nccn3c2)cc1	8.7 nM
CC(C)COc1cccc(S(=O)(=O)c2ccc(CNC(=O)c3cc4ccncc4s3)cc2)c1	25.2 nM
O=C(NCc1ccc(S(=O)(=O)c2ccc(C(=O)N3CCCC3)cc2)cc1)c1cc2ccncc2s1	1.7 nM
O=C(NCc1ccc(S(=O)(=O)c2ccc(C(=O)N3CCCC3)cc2)cc1)c1cc2ccncc2o1 [N-{[4-({4-[(pyrrolidin-1-yl)carbonyl]benzene}sulfonyl)phenyl]methyl}furo[2,3-c]pyridine-2-carboxamide]	1.4 nM
O=C(NCc1ccc(S(=O)(=O)c2cccc3cc[nH]c23)cc1)c1cnc2[nH]ncc2c1 [N-{[4-(1H-indole-7-sulfonyl)phenyl]methyl}-1H-pyrazolo[3,4-b]pyridine-5-carboxamide]	43.2 nM

Same assay, conditions: Homo sapiens; A2780 cells, 72 hours, SRB; read-out: A2780 IC50

Compound	IC50
O=C(NCc1ccc(S(=O)(=O)c2cccc(C(F)(F)F)c2)cc1)c1cnc2[nH]ncc2c1	10.4 nM
